Reference: article PMC5075098, “Preclinical Evaluation of the Stability, Safety, and Efficacy of CD101, a Novel Echinocandin” (Antimicrobial Agents and Chemotherapy, 2016)
Where two headings read alike, the source gives them in different places. Starred links: 1 amine or outer side, 2 acyl side, 3 side chain; linkers in the order of their positions; H or OH if unused. Positions of bridges follow the written chain, without caps; N, C: chain ends. Non-standard residues stand in square brackets, D forms with d. Residues, ends and D or L forms follow the SMILES beside them. *: point of attachment. Orn(4R-OH,5R-OCH2CH2NMe3+) = C[N+](C)(C)CCO[C@@H](N[*:3])[C@H](O)C[C@H](N[*:1])C(=O)[*:2]; pTerphenylCO(4''-OnC5H11) = CCCCCOc1ccc(-c2ccc(-c3ccc(C(=O)*)cc3)cc2)cc1; hTyr(3S-OH,4S-OH) = N[C@H](C(=O)O)[C@H](O)[C@@H](O)c1ccc(O)cc1; Pro(3S-OH,4S-Me) = C[C@H]1CN[C@H](C(=O)O)[C@H]1O; Hyp = O=C(O)[C@@H]1C[C@@H](O)CN1

Tests used:
[1] = Reactive metabolite screening (glutathione trapping); format: in vitro ADME
Protocol: Samples were diluted to 10 μg/ml into 50:50 acetonitrile-water with 0.1 formic acid. Samples were analyzed by LC (Agilent 1100) with high-resolution MS (Waters quadrupole time of flight [Q-TOF] Premier mass spectrometer with electrospray interface) with concurrent low- and high-energy scans to obtain full-scan parent and product fragment ions. The analytical column was a Phenomenex Kinetex (2.6-μm C18, 100 by 3.0 mm). Waters MassLynx 4.1 software was used for data analysis.

[2] = target: T1, CYP2C8 (Homo sapiens, UniProt P10632); test: CYP450 inhibition in human liver microsomes
T1 sequence (P10632 1-490): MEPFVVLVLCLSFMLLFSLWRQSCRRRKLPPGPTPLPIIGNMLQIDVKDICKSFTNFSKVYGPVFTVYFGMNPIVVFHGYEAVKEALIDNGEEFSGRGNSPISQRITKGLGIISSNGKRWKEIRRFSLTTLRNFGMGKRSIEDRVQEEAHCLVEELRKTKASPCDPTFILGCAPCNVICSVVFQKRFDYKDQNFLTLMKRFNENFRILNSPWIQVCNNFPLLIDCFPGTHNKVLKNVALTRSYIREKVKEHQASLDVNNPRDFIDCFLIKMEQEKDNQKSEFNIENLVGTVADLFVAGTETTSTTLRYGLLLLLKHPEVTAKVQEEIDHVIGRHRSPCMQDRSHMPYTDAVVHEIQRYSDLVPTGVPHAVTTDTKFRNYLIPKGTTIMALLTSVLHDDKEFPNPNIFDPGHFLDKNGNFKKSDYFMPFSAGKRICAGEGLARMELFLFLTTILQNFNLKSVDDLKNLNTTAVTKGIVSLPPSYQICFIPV
Protocol: The final DMSO content in the reaction mixture was equal in all solutions used within an assay and was less than 0.2%. […] After incubation for 5 min at 37°C, the reactions were terminated by addition of methanol-containing internal standard (propranolol) for analytical quantification. The quenched samples were incubated at 4°C for 10 min and centrifuged at 4°C for 10 min.

[3] = rat
[4] = Metabolic stability in liver microsomes; conditions: for t1/2, NADPH free / half-life in liver microsomes: 1 μM; for t1/2, NADPH free: up to 2 h at 37°C, LC-MS/MS, first-order decay fit; for half-life in liver microsomes: NADPH state not specified, 37°C; for half-life: liver microsomes
Protocol: Metabolic stability was determined as described in reference. […] Following incubation, samples were quenched with ice-cold methanol or acetonitrile (ACN), containing an appropriate internal standard and centrifuged to remove precipitated protein, and the supernatants were analyzed to quantitate the remaining parent. […] Data were converted to the percentage remaining by dividing by the time zero concentration value. Data were fit to a first-order decay model to determine half-life. Intrinsic clearance was calculated from the half-life and the protein concentrations.

[5] = system: C. albicans R303; test: Neutropenic mouse model of C. albicans infection, kidney colony counts; conditions: for log reduction in CFU per gram relative to vehicle: 24, 48, 72 h
Protocol: Immunosuppression was induced by two intraperitoneal (i.p.) injections of cyclophosphamide at 150 mg/kg 4 days before and 100 mg/kg 1 day before inoculation. […] The animals in the fluconazole group were sacrificed 48 h after infection.

**Q.** Which results are given for `CCCCCOc1ccc(-c2ccc(-c3ccc(C(=O)N[C@H]4C[C@@H](O)[C@@H](OCC[N+](C)(C)C)NC(=O)[C@@H]5[C@@H](O)[C@@H](C)CN5C(=O)[C@H]([C@@H](C)O)NC(=O)[C@H]([C@H](O)[C@@H](O)c5ccc(O)cc5)NC(=O)[C@@H]5C[C@@H](O)CN5C(=O)[C@H]([C@@H](C)O)NC4=O)cc3)cc2)cc1` [CD101] ({pTerphenylCO(4''-OnC5H11)}-[Orn(4R-OH,5R-OCH2CH2NMe3+)]T[Hyp][hTyr(3S-OH,4S-OH)]T[Pro(3S-OH,4S-Me)]; lactam 1-C)?
**A.** degradation on incubation with and without GSH ([1]; PBS pH 7.4, 37°C, 24 h of incubation (Fig. 3 legend), LC-HRMS): No degradation observed; GSH adduct formation (reactive intermediate) ([1]; PBS pH 7.4, excess GSH, 37°C, LC with high-resolution MS): not found to generate any GSH adduct; IC50 [2]: 25.7 µM; half-life ([3]; liver microsomes): > 4 h; half-life ([3]; microsomes): 3.99 h; microsomal CLint ([3]; microsomes): 9.6 µL/min/mg; t1/2, NADPH free ([4]; human liver microsomes without NADPH): >4 h; half-life in liver microsomes ([4]; human microsomes): ≥ 4 h; half-life ([4]; human): > 4 h; t1/2, NADPH free ([4]; monkey liver microsomes without NADPH): >4 h; half-life in liver microsomes ([4]; monkey microsomes): ≥ 4 h; half-life ([4]; monkey): > 4 h; microsomal CLint ([4]; monkey, microsomes): 2.1 µL/min/mg; log reduction in CFU per gram relative to vehicle ([5]; 0.2 mg/kg single i.v. dose): less than 1 log; log reduction in CFU per gram relative to vehicle ([5]; 0.4 mg/kg single i.v. dose): up to 1.7 log; log reduction in CFU per gram relative to vehicle ([5]; 0.6 mg/kg single i.v. dose): up to 2.9 log; log reduction in CFU per gram relative to vehicle ([5]; 0.8 mg/kg single i.v. dose): up to 4.7 log; antimicrobial effect (≥99%, 2-log reduction in CFU per gram) ([5]; CD101 0.6 and 0.8 mg/kg i.v., at 24, 48, and 72 h): significant
